GI50 and TGI data for one compound are collected here from PubChem BioAssay (NCI).

Among the test systems are SNB-75 CNS; PC-3 prostate; HT29 colon; MDA-MB-231 breast; CCRF-CEM leukemia; NCI-H522 lung; NCI-H23 lung; HL-60(TB) leukemia; HOP-62 NSCLC; SK-MEL-28 melanoma.
Holding throughout (assay): inhibition of tumour cell growth, NCI panel, 48 h

Molecules are shown by their SMILES.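 96-well plates; 48 h exposure; 5 concentrations. Endpoints by linear interpolation between flanking doses. Not reached: highest tested concentration assigned. GI50 is the concentration that inhibits growth by half. TGI: total growth inhibition.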

Consider `C1=C/COCc2cc(ccc2OCCN2CCCC2)Nc2nccc(n2)-c2ccc(o2)COC/1`, for which the GI50 is 1250 nM in the assay on SNB-75 CNS; 1170 nM with PC-3 prostate; 1330 nM in the assay on HT29 colon; 1970 nM in the assay on MDA-MB-231 breast; 2060 nM in the assay with CCRF-CEM leukemia; 1840 nM in the assay with NCI-H522 lung. For the same compound, the GI50 with NCI-H23 lung is 1610 nM; with HL-60(TB) leukemia it was 729 nM; in the assay with HOP-62 NSCLC, 2280 nM; in the assay with SK-MEL-28 melanoma it was 1650 nM. The TGI is 2750 nM in the assay with SNB-75 CNS; 21400 nM with PC-3 prostate; 7330 nM in the assay on HT29 colon; 7900 nM in the assay with MDA-MB-231 breast; 7200 nM in the assay on CCRF-CEM leukemia; 6130 nM in the assay with NCI-H522 lung. Also, the TGI with NCI-H23 lung worked out at 5240 nM; in the assay on HL-60(TB) leukemia, 6270 nM; in the assay with HOP-62 NSCLC, 6910 nM; in the assay with SK-MEL-28 melanoma it was 5260 nM.
